Laboratory results taken from PubChem BioAssay AID2060485 (Molecular Pharmacology Branch, DTP, NCI, 2025).

Test system: A375 multi-cell spheroids with HUVEC/MSC, viability
Experiment: Anticancer human tumor A375 cell line growth inhibition [GQUAD];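 note: spheroids exposed to compounds for seven days before readout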
Conditions: for IC50: curve of first compound; for viability, T/C: stronger effect = lower value
How it was run: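 Multi-cell-type spheroids of tumor cells with HUVEC and mesenchymal stem cells, treated with drug combinations. Concentrations descend in half-log steps from near clinical Cmax, or from 10 microM where Cmax is unknown; viability read-out.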

[1] = second compound 0.0316 µM, first compound 0.0316 µM
[2] = second compound 0.0316 µM, first compound 0.1 µM
[3] = second compound 0.0316 µM, first compound 0.316 µM
[4] = second compound 0.0316 µM, first compound 1 µM
[5] = second compound 0.0316 µM, first compound 3.16 µM
[6] = second compound 0.0316 µM, first compound 10 µM
[7] = second compound 0.1 µM, first compound 0.0316 µM
[8] = second compound 0.1 µM, first compound 0.1 µM
[9] = second compound 0.1 µM, first compound 0.316 µM
[10] = second compound 0.1 µM, first compound 1 µM
[11] = second compound 0.1 µM, first compound 3.16 µM
[12] = second compound 0.1 µM, first compound 10 µM
[13] = second compound 0.316 µM, first compound 0.0316 µM
[14] = second compound 0.316 µM, first compound 0.1 µM
[15] = second compound 0.316 µM, first compound 0.316 µM
[16] = second compound 0.316 µM, first compound 1 µM
[17] = second compound 0.316 µM, first compound 3.16 µM
[18] = second compound 0.316 µM, first compound 10 µM
[19] = second compound 1 µM, first compound 0.0316 µM
[20] = second compound 1 µM, first compound 0.1 µM
[21] = second compound 1 µM, first compound 0.316 µM
[22] = second compound 1 µM, first compound 1 µM
[23] = second compound 1 µM, first compound 3.16 µM
[24] = second compound 1 µM, first compound 10 µM
[25] = second compound 3.16 µM, first compound 0.0316 µM
[26] = second compound 3.16 µM, first compound 0.1 µM
[27] = second compound 3.16 µM, first compound 0.316 µM
[28] = second compound 3.16 µM, first compound 1 µM
[29] = second compound 3.16 µM, first compound 3.16 µM
[30] = second compound 3.16 µM, first compound 10 µM
[31] = second compound 10 µM, first compound 0.0316 µM
[32] = second compound 10 µM, first compound 0.1 µM
[33] = second compound 10 µM, first compound 0.316 µM
[34] = second compound 10 µM, first compound 1 µM
[35] = second compound 10 µM, first compound 3.16 µM
[36] = second compound 10 µM, first compound 10 µM

Compound: CC(C)n1c(=O)n(C)c2cnc3cc(F)c(-c4ccc(OCCCN5CCCCC5)nc4)cc3c21 + CN(C)c1ccc(Nc2c3ccc(NC(=O)CCN4CCCC4)cc3nc3cc(NC(=O)CCN4CCCC4)ccc23)cc1
- IC50 (second compound 0.0316 µM): > 10 µM
- IC50 (second compound 0.1 µM): > 10 µM
- IC50 (second compound 0.316 µM): > 10 µM
- IC50 (second compound 1 µM): > 10 µM
- IC50 (second compound 3.16 µM): > 10 µM
- IC50 (second compound 10 µM): 4.83 µM
- viability, T/C [1]: 109%
- viability, T/C [2]: 99.5%
- viability, T/C [3]: 105%
- viability, T/C [4]: 106%
- viability, T/C [5]: 114%
- viability, T/C [6]: 88.3%
- viability, T/C [7]: 108%
- viability, T/C [8]: 106%
- viability, T/C [9]: 97.9%
- viability, T/C [10]: 98.5%
- viability, T/C [11]: 115%
- viability, T/C [12]: 91.2%
- viability, T/C [13]: 103%
- viability, T/C [14]: 97.1%
- viability, T/C [15]: 103%
- viability, T/C [16]: 109%
- viability, T/C [17]: 116%
- viability, T/C [18]: 78.3%
- viability, T/C [19]: 103%
- viability, T/C [20]: 102%
- viability, T/C [21]: 108%
- viability, T/C [22]: 108%
- viability, T/C [23]: 110%
- viability, T/C [24]: 78%
- viability, T/C [25]: 97.4%
- viability, T/C [26]: 98.1%
- viability, T/C [27]: 104%
- viability, T/C [28]: 103%
- viability, T/C [29]: 107%
- viability, T/C [30]: 59.6%
- viability, T/C [31]: 102%
- viability, T/C [32]: 96.4%
- viability, T/C [33]: 94.2%
- viability, T/C [34]: 89.4%
- viability, T/C [35]: 61%
- viability, T/C [36]: 30.5%

Compound: O=c1[nH]cc(F)c(=O)[nH]1 + Cc1cnc(CNC(=O)c2c(=O)c3ccc(N4CCCN(C)CC4)nc3n3c2sc2ccccc23)cn1
- IC50 (second compound 0.0316 µM): > 10 µM
- IC50 (second compound 0.1 µM): > 10 µM
- IC50 (second compound 0.316 µM): 0.675 µM
- IC50 (second compound 1 µM): < 0.0316 µM
- IC50 (second compound 3.16 µM): < 0.0316 µM
- IC50 (second compound 10 µM): < 0.0316 µM
- viability, T/C [1]: 98.5%
- viability, T/C [2]: 105%
- viability, T/C [3]: 92.4%
- viability, T/C [4]: 107%
- viability, T/C [5]: 112%
- viability, T/C [6]: 96.5%
- viability, T/C [7]: 75.9%
- viability, T/C [8]: 67.8%
- viability, T/C [9]: 82.8%
- viability, T/C [10]: 81.4%
- viability, T/C [11]: 88.7%
- viability, T/C [12]: 63.1%
- viability, T/C [13]: 56.8%
- viability, T/C [14]: 51.4%
- viability, T/C [15]: 50.7%
- viability, T/C [16]: 49.4%
- viability, T/C [17]: 48.6%
- viability, T/C [18]: 45.3%
- viability, T/C [19]: 44.9%
- viability, T/C [20]: 41.3%
- viability, T/C [21]: 47.6%
- viability, T/C [22]: 51.7%
- viability, T/C [23]: 45.8%
- viability, T/C [24]: 37.7%
- viability, T/C [25]: 40.3%
- viability, T/C [26]: 33.4%
- viability, T/C [27]: 34.6%
- viability, T/C [28]: 36%
- viability, T/C [29]: 39%
- viability, T/C [30]: 30.7%
- viability, T/C [31]: 37.3%
- viability, T/C [32]: 30%
- viability, T/C [33]: 32.6%
- viability, T/C [34]: 33.9%
- viability, T/C [35]: 30.3%
- viability, T/C [36]: 29.4%
